Measurements published in ChEMBL document CHEMBL1201862, “PubChem BioAssay data set” (2004).
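Tested at 5 concentrations; 48 h exposure; 96-well plates; endpoints linearly interpolated, else capped at highest concentration. Abbreviation: GI50, concentration required for 50% inhibition of growth.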 Calls of active or inactive are those of the source. Cut-off read from the data, not from the text of the source: active = GI50 up to about 1.1 µM and inactive = higher.

Key:
Test in all cases: NCI-60 cell line screen, 48 h
HL-60 = tested on: HL-60
KM12 = tested on: KM12
SN12C = tested on: SN12C
IGROV-1 = tested on: IGROV-1
UACC-257 = tested on: UACC-257
OVCAR-5 = tested on: OVCAR-5
HCT-15 = tested on: HCT-15
HT-29 = tested on: HT-29
SR = tested on: SR
A498 = tested on: A498
ACHN = tested on: ACHN
HCT-116 = tested on: HCT-116
LOX IMVI = tested on: LOX IMVI
OVCAR-4 = tested on: OVCAR-4
PC-3 = tested on: PC-3
SW-620 = tested on: SW-620
EKVX = tested on: EKVX
A549 = tested on: A549
NCI-H23 = tested on: NCI-H23
BT-549 = tested on: BT-549
K562 = tested on: K562
SK-MEL-28 = tested on: SK-MEL-28
M14 = tested on: M14
Hs-578T = tested on: Hs-578T
SF-539 = tested on: SF-539
DU-145 = tested on: DU-145
MDA-MB-435 = tested on: MDA-MB-435
MDA-MB-231 = tested on: MDA-MB-231
MDA-N = tested on: MDA-N
NCI-H226 = tested on: NCI-H226
COLO 205 = tested on: COLO 205
HOP-92 = tested on: HOP-92
RXF 393 = tested on: RXF 393
786-0 = tested on: 786-0
NCI-H522 = tested on: NCI-H522
OVCAR-3 = tested on: OVCAR-3
SK-MEL-2 = tested on: SK-MEL-2
SNB-75 = tested on: SNB-75
NCI-H460 = tested on: NCI-H460
T47D = tested on: T47D
CCRF-CEM = tested on: CCRF-CEM
Malme-3M = tested on: Malme-3M
UO-31 = tested on: UO-31
MCF7 = tested on: MCF7
TK-10 = tested on: TK-10
U-251 = tested on: U-251
SK-OV-3 = tested on: SK-OV-3
OVCAR-8 = tested on: OVCAR-8
HOP-62 = tested on: HOP-62
SK-MEL-5 = tested on: SK-MEL-5
MOLT-4 = tested on: MOLT-4
SF-295 = tested on: SF-295
RPMI-8226 = tested on: RPMI-8226
CAKI-1 = tested on: CAKI-1
HCC 2998 = tested on: HCC 2998
SF-268 = tested on: SF-268
NCI/ADR-RES = tested on: NCI/ADR-RES
UACC-62 = tested on: UACC-62
SNB-19 = tested on: SNB-19

Measured: GI50

C=C(C)C12CC3CC/C(=N/O)C(C1)C3(N1CCOCC1)C/C2=N/O (centres undefined)
> 100 µM: HCT-15
inactive: HL-60 > 100 µM | KM12 > 100 µM | SN12C > 100 µM | IGROV-1 > 100 µM | UACC-257 > 100 µM | OVCAR-5 > 100 µM | HT-29 > 100 µM | SR > 100 µM | A498 > 100 µM | ACHN > 100 µM | HCT-116 > 100 µM | LOX IMVI > 100 µM | OVCAR-4 > 100 µM | PC-3 > 100 µM | SW-620 > 100 µM | EKVX > 100 µM | A549 > 100 µM | NCI-H23 > 100 µM | BT-549 > 100 µM | K562 > 100 µM | SK-MEL-28 > 100 µM | M14 > 100 µM | Hs-578T > 100 µM | SF-539 > 100 µM | DU-145 > 100 µM | MDA-MB-435 > 100 µM | MDA-MB-231 > 100 µM | MDA-N > 100 µM | NCI-H226 > 100 µM | COLO 205 > 100 µM | HOP-92 > 100 µM | RXF 393 > 100 µM | 786-0 > 100 µM | NCI-H522 > 100 µM | OVCAR-3 > 100 µM | SK-MEL-2 > 100 µM | SNB-75 > 100 µM | NCI-H460 > 100 µM | T47D > 100 µM | CCRF-CEM > 100 µM | Malme-3M > 100 µM | UO-31 > 100 µM | MCF7 > 100 µM | TK-10 > 100 µM | U-251 > 100 µM | SK-OV-3 > 100 µM | OVCAR-8 > 100 µM | HOP-62 > 100 µM | SK-MEL-5 > 100 µM | MOLT-4 > 100 µM | SF-295 > 100 µM | RPMI-8226 > 100 µM | CAKI-1 > 100 µM | HCC 2998 > 100 µM | SF-268 > 100 µM | NCI/ADR-RES > 100 µM | UACC-62 > 100 µM | SNB-19 > 100 µM
